Holding throughout (assay type): cell-based, human
For one experiment, the system named is MX-1 (breast carcinoma). The experiment is described as follows: Cytotoxicity/growth inhibition assay, MX-1. The settings on record: MX-1 cells, 3 days culture, CellTiter-Glo, 0.1-200 μM tested; read-out: IC50 (MX-1). The method, boiled down:
(§1)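 Test compounds in DMSO (0.1–200 μM; final DMSO 0.5%) added to freshly diluted cells (3×10^3 cells/mL MX-1 and DLD-1, 6×10^3 cells/mL LNCap), triplicate wells. Cultured ~three doubling times (3 days MX-1, 4 days DLD-1/LNCap). CellTiter-Glo luminescence, 15 min room temperature; growth expressed as % of DMSO solvent control.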

In experiment [1] the test system is DLD-1 (colorectal adenocarcinoma). In words: Cytotoxicity/growth inhibition assay, DLD-1. The settings on record: DLD-1 cells, 4 days culture, CellTiter-Glo, 0.1-200 μM tested; read-out: IC50 (DLD-1). The method, boiled down: as §1
(Cellular ATP, detected with luciferase, serves as a proxy for viable cell number.)

Experiment [2] has as its system LNCap (prostate carcinoma). The experiment is described as follows: Cytotoxicity/growth inhibition assay, LNCap. The settings on record: LNCap cells, 4 days culture, CellTiter-Glo, 0.1-200 μM tested; read-out: IC50 (LNCap). The method, boiled down: as §1

Results on 40 compounds are retold here after patent publication US8093231B2, “Sulfonylethyl phosphorodiamidates” (Telik, Inc., priority 2004, dated 2012).

Broadly, the IC50 is the concentration that inhibits the measured activity by half.

Turning to `Cc1c(O)c(CO)c(CS(=O)(=O)CCOP(=O)(N(CCCl)CCCl)N(CCCl)CCCl)c[n+]1[O-]` [Compound 184A], the IC50 in the experiment on MX-1 (breast carcinoma) was determined as 28.9 µM; in experiment [1], 5.3 µM; in experiment [2], 94.8 µM.
Turning to `COc1ccc(S(=O)(=O)CCOP(=O)(N(CCCl)CCCl)N(CCCl)CCCl)cc1` [Compound 115A], the figures for the 50% inhibitory concentration (IC50) (in the experiment with MX-1 (breast carcinoma); in experiment [1]; in experiment [2]) were 5.3 µM, 4.1 µM and 18.5 µM, respectively.
Take `O=P(OCCS(=O)(=O)C1CCCC1)(N(CCCl)CCCl)N(CCCl)CCCl` [Compound 10A]: the half-inhibitory concentration (IC50) came to 14.4 µM in the experiment with MX-1 (breast carcinoma), 7.7 µM in experiment [1] and 43 µM in experiment [2].
As for `O=P(OCCS(=O)(=O)c1ccccc1)(N(CCCl)CCCl)N(CCCl)CCCl` [Compound 117A], the concentration for half-maximal inhibition (IC50) came out at 4.1 µM in the experiment with MX-1 (breast carcinoma), 4 µM in experiment [1] and 16.3 µM in experiment [2].
Turning to `O=P(OCCS(=O)(=O)CCCCS(=O)(=O)CCOP(=O)(N(CCCl)CCCl)N(CCCl)CCCl)(N(CCCl)CCCl)N(CCCl)CCCl` [Compound 4B], the half-inhibitory concentration (IC50) in the experiment on MX-1 (breast carcinoma) was 4.1 µM; in experiment [1], 2.9 µM; in experiment [2] it was 11.5 µM.
As to `O=C(c1ccc(CS(=O)(=O)CCOP(=O)(N(CCCl)CCCl)N(CCCl)CCCl)cc1)N1CCN(Cc2ccccc2)CC1` [Compound 177A], the 50% inhibitory concentration (IC50) with MX-1 (breast carcinoma) turned out to be 8.8 µM; in experiment [1], 4.5 µM; in experiment [2] it was 21.1 µM.
Turning to `CC(C)(C)OC(=O)[C@@H](Cc1ccccc1)NC(=O)CS(=O)(=O)CCOP(=O)(N(CCCl)CCCl)N(CCCl)CCCl` [Compound 25A], the half-inhibitory concentration (IC50) amounted to 5.6 µM in the experiment on MX-1 (breast carcinoma), 3.7 µM in experiment [1] and 18.9 µM in experiment [2].
The like results for `O=P(OCCS(=O)(=O)c1cccc(S(=O)(=O)CCOP(=O)(N(CCCl)CCCl)N(CCCl)CCCl)c1)(N(CCCl)CCCl)N(CCCl)CCCl` [Compound 11B] were, in that order, 3 µM, 2.1 µM and 4.5 µM.
The like results for `CC(C)NC(=O)[C@@H](N)CS(=O)(=O)CCOP(=O)(N(CCCl)CCCl)N(CCCl)CCCl` [Compound 89A] were, in that order, 22.2 µM, 8.5 µM and 140 µM.
As to `O=P(OCCS(=O)(=O)Cc1ccccc1CS(=O)(=O)CCOP(=O)(N(CCCl)CCCl)N(CCCl)CCCl)(N(CCCl)CCCl)N(CCCl)CCCl` [Compound 13B], the IC50 is 1.9 µM in the experiment with MX-1 (breast carcinoma), 2.3 µM in experiment [1] and 4.7 µM in experiment [2].
`N[C@@H](CCS(=O)(=O)CCOP(=O)(N(CCCl)CCCl)N(CCCl)CCCl)C(=O)O` [Compound 77A]: the figures for the half-maximal inhibitory concentration (IC50) (in the experiment with MX-1 (breast carcinoma); in experiment [1]; in experiment [2]) were 21.3 µM, 8 µM and 140 µM, respectively.
Consider `O=C(O)c1ccc(CS(=O)(=O)CCOP(=O)(N(CCCl)CCCl)N(CCCl)CCCl)cc1` [Compound 139A], for which the IC50 was 25.3 µM in the experiment with MX-1 (breast carcinoma), 9.3 µM in experiment [1] and 82.1 µM in experiment [2].
As to `O=P(OCCS(=O)(=O)Cc1ccc(Cl)cc1Cl)(N(CCCl)CCCl)N(CCCl)CCCl` [Compound 135A], the values for the 50% inhibitory concentration (IC50) (in the experiment on MX-1 (breast carcinoma); in experiment [1]; in experiment [2]) were 3.5 µM, 0.6 µM and 19.1 µM, respectively.
Consider `Cc1ccc(CS(=O)(=O)CCOP(=O)(N(CCCl)CCCl)N(CCCl)CCCl)cc1` [Compound 130A], for which the concentration for half-maximal inhibition (IC50) turned out to be 6.5 µM with MX-1 (breast carcinoma), 5.1 µM in experiment [1] and 22 µM in experiment [2].
In the case of `O=C(c1ccc(CS(=O)(=O)CCOP(=O)(N(CCCl)CCCl)N(CCCl)CCCl)cc1)N(CCO)CCO` [Compound 169A], the results for the half-inhibitory concentration (IC50) (in the experiment on MX-1 (breast carcinoma); in experiment [1]; in experiment [2]) were 34.5 µM, 7.6 µM and 144 µM, respectively.
As to `O=[N+]([O-])c1cccc(CS(=O)(=O)CCOP(=O)(N(CCCl)CCCl)N(CCCl)CCCl)c1` [Compound 138A], the IC50 stood at 16.8 µM in the experiment on MX-1 (breast carcinoma), 1.8 µM in experiment [1] and 12 µM in experiment [2].
On the same counts, the results for `O=P(OCCS(=O)(=O)CCS(=O)(=O)CCOP(=O)(N(CCCl)CCCl)N(CCCl)CCCl)(N(CCCl)CCCl)N(CCCl)CCCl` [Compound 1B] are 4 µM, 2.5 µM and 5.1 µM.
For the compound `NC(=O)C1CCN(C(=O)c2ccc(CS(=O)(=O)CCOP(=O)(N(CCCl)CCCl)N(CCCl)CCCl)cc2)CC1` [Compound 170A], the results for the half-maximal inhibitory concentration (IC50) (in the experiment on MX-1 (breast carcinoma); in experiment [1]; in experiment [2]) were 31.4 µM, 10.8 µM and at least 200 µM, respectively.
Consider `CC(C)(C)OC(=O)N[C@@H](CS(=O)(=O)CCOP(=O)(N(CCCl)CCCl)N(CCCl)CCCl)C(=O)NCCO` [Compound 86A], for which the results for the IC50 (in the experiment with MX-1 (breast carcinoma); in experiment [1]; in experiment [2]) were 25.1 µM, 10.3 µM and 73.5 µM, respectively.
The like results for `NCC(=O)Nc1cccc(CS(=O)(=O)CCOP(=O)(N(CCCl)CCCl)N(CCCl)CCCl)c1` [Compound 143A] were, in that order, 15.9 µM, 10.9 µM and 110 µM.
Take `O=P(OCCS(=O)(=O)c1ccccc1Cl)(N(CCCl)CCCl)N(CCCl)CCCl` [Compound 106A]: the concentration for half-maximal inhibition (IC50) was determined as 4.2 µM in the experiment on MX-1 (breast carcinoma), 3.7 µM in experiment [1] and 18.3 µM in experiment [2].
`O=C(O)CCS(=O)(=O)CCOP(=O)(N(CCCl)CCCl)N(CCCl)CCCl` [Compound 29A]: the results for the IC50 (in the experiment on MX-1 (breast carcinoma); in experiment [1]; in experiment [2]) were 23 µM, 11.5 µM and 66.4 µM, respectively.
The like results for `O=P(OCCS(=O)(=O)c1ccc(C(F)(F)F)cc1)(N(CCCl)CCCl)N(CCCl)CCCl` [Compound 109A] were, in that order, 1.1 µM, 0.6 µM and 7.7 µM.
As to `COC(=O)[C@H](CS(=O)(=O)CCOP(=O)(N(CCCl)CCCl)N(CCCl)CCCl)NS(=O)(=O)c1ccc(Cl)cc1` [Compound 81A], the IC50 with MX-1 (breast carcinoma) is 33.3 µM; in experiment [1] it was 6.9 µM; in experiment [2] it was 86.6 µM.
The like results for `O=P(OCCS(=O)(=O)c1ccccn1)(N(CCCl)CCCl)N(CCCl)CCCl` [Compound 124A] were, in that order, 7.2 µM, 6 µM and 15.5 µM.
Turning to `O=P(OCCS(=O)(=O)c1ncnc2[nH]cnc12)(N(CCCl)CCCl)N(CCCl)CCCl` [Compound 125A], the results for the half-inhibitory concentration (IC50) (in the experiment on MX-1 (breast carcinoma); in experiment [1]; in experiment [2]) were 22.5 µM, 7.8 µM and 45.1 µM, respectively.
Regarding `O=C(O)[C@H](CS(=O)(=O)CCOP(=O)(N(CCCl)CCCl)N(CCCl)CCCl)NS(=O)(=O)c1ccc(Cl)cc1` [Compound 105A], the IC50 is 31.6 µM in the experiment with MX-1 (breast carcinoma), 23.1 µM in experiment [1] and at least 200 µM in experiment [2].
In the case of `CCS(=O)(=O)CCOP(=O)(N(CCCl)CCCl)N(CCCl)CCCl` [Compound 1A], the figures for the 50% inhibitory concentration (IC50) (in the experiment with MX-1 (breast carcinoma); in experiment [1]; in experiment [2]) were 16.9 µM, 9.1 µM and 57.1 µM, respectively.
On the same counts, the results for `O=P(OCCS(=O)(=O)Cc1ccccn1)(N(CCCl)CCCl)N(CCCl)CCCl` [Compound 181A] are 8.4 µM, 7.4 µM and 26.4 µM.
For the compound `Nc1cccc(CS(=O)(=O)CCOP(=O)(N(CCCl)CCCl)N(CCCl)CCCl)c1` [Compound 141A], the IC50 in the experiment with MX-1 (breast carcinoma) was determined as 17.3 µM; in experiment [1], 12.9 µM; in experiment [2] it was 45.9 µM.
With `O=C(CS(=O)(=O)CCOP(=O)(N(CCCl)CCCl)N(CCCl)CCCl)NC(Cc1ccccc1)C(=O)O` (stereo not drawn) [Compound 26A], the results for the IC50 (in the experiment with MX-1 (breast carcinoma); in experiment [1]; in experiment [2]) were 29.4 µM, 8.4 µM and 76.8 µM, respectively.
As for `N#CCNC(=O)c1ccc(CS(=O)(=O)CCOP(=O)(N(CCCl)CCCl)N(CCCl)CCCl)cc1` [Compound 164A], the IC50 with MX-1 (breast carcinoma) came out at 10.7 µM; in experiment [1] it was 5.8 µM; in experiment [2], 45.9 µM.
For `O=C(c1ccco1)N1CCN(C(=O)[C@H](CS(=O)(=O)CCOP(=O)(N(CCCl)CCCl)N(CCCl)CCCl)NS(=O)(=O)c2ccccc2)CC1` [Compound 93A], the concentration for half-maximal inhibition (IC50) in the experiment with MX-1 (breast carcinoma) is 19.3 µM; in experiment [1] it was 13.2 µM; in experiment [2] it was 59.1 µM.
As for `O=P(OCCS(=O)(=O)C1CCCCC1)(N(CCCl)CCCl)N(CCCl)CCCl` [Compound 11A], the figures for the IC50 (in the experiment with MX-1 (breast carcinoma); in experiment [1]; in experiment [2]) were 10.4 µM, 4 µM and 18.1 µM, respectively.
Take `O=P(OCCS(=O)(=O)Cc1ccco1)(N(CCCl)CCCl)N(CCCl)CCCl` [Compound 179A]: the IC50 with MX-1 (breast carcinoma) stood at 7.2 µM; in experiment [1], 7.6 µM; in experiment [2] it was 25.6 µM.
`CNC(=O)c1ccc(CS(=O)(=O)CCOP(=O)(N(CCCl)CCCl)N(CCCl)CCCl)cc1` [Compound 168A]: the 50% inhibitory concentration (IC50) in the experiment with MX-1 (breast carcinoma) was 7.9 µM; in experiment [1], 5.7 µM; in experiment [2], 24.2 µM.
The like results for `CC(C)(C)OC(=O)N[C@@H](CS(=O)(=O)CCOP(=O)(N(CCCl)CCCl)N(CCCl)CCCl)C(=O)N1CCN(C(=O)c2ccco2)CC1` [Compound 85A] were, in that order, 11.8 µM, 8.8 µM and 41.1 µM.
In the case of `Nc1cc(CS(=O)(=O)CCOP(=O)(N(CCCl)CCCl)N(CCCl)CCCl)cc(CS(=O)(=O)CCOP(=O)(N(CCCl)CCCl)N(CCCl)CCCl)c1` [Compound 17B], the IC50 in the experiment on MX-1 (breast carcinoma) stood at 6.2 µM; in experiment [1], 4.6 µM; in experiment [2], 18.6 µM.
Turning to `O=C(O)c1ncccc1S(=O)(=O)CCOP(=O)(N(CCCl)CCCl)N(CCCl)CCCl` [Compound 126A], the IC50 in the experiment on MX-1 (breast carcinoma) amounted to 20.3 µM; in experiment [1], 6.7 µM; in experiment [2], 126 µM.
Consider `CN(C)CC(=O)Nc1cc(CS(=O)(=O)CCOP(=O)(N(CCCl)CCCl)N(CCCl)CCCl)cc(CS(=O)(=O)CCOP(=O)(N(CCCl)CCCl)N(CCCl)CCCl)c1` [Compound 20B], for which the values for the IC50 (in the experiment on MX-1 (breast carcinoma); in experiment [1]; in experiment [2]) were 5.1 µM, 4 µM and 33.3 µM, respectively.
